How the values were obtained:
[1] = target: T1, SIRT1 (Homo sapiens, UniProt Q96EB6); assay: SIRT1 fluorescence polarization or mass spectrometry based assay (format not given); assay type: biochemical; settings: inhibition of SIRT1 (Table 5)
T1 sequence (Q96EB6 1-747): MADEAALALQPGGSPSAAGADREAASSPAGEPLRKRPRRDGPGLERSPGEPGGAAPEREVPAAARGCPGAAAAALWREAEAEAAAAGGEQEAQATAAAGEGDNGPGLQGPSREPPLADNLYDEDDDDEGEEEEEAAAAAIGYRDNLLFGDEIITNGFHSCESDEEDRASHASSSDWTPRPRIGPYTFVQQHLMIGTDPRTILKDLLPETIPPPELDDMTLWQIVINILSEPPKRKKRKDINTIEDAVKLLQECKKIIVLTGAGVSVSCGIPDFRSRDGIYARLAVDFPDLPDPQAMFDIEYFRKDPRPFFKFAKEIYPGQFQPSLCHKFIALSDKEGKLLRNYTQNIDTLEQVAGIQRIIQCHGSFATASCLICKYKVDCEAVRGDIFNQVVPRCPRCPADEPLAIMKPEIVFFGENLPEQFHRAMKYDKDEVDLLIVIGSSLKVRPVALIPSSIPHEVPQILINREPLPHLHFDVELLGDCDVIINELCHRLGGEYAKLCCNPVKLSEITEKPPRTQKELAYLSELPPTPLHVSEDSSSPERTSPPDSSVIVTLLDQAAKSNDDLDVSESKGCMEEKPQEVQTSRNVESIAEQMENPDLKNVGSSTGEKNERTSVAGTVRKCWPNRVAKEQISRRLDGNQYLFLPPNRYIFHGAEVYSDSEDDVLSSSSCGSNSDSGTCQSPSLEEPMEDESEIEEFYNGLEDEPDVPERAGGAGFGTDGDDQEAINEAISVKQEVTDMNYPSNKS

[2] = target: T2, human SIRT3 (Homo sapiens, UniProt Q9NTG7); assay: Fluorescence polarization assay of SIRT3 activity (Histone H4-based peptide substrate); assay type: biochemical; settings: inhibition of SIRT3 (Table 7)
T2 construct: The SIRT3 protein used in the assays corresponded to amino acid residues 102-399 of human SIRT3; His-tag (N); made in house; host or cells: E. coli
T2 sequence (Q9NTG7 102-399): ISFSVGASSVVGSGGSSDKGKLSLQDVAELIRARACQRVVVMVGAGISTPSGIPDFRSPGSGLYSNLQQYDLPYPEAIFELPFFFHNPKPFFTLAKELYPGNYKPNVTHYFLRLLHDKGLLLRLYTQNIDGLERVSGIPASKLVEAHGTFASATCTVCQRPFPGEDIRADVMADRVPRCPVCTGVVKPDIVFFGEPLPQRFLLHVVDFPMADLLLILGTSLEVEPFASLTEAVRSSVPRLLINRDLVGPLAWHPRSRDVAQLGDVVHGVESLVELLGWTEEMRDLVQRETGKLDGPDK
From the text: A fluorescence polarization assay was used to identify modulators of SIRT3 activity. The same assay may be used to identify modulators of any sirtuin protein. The assay utilizes a peptide substrate based on a fragment of Histone H4, a known sirtuin deacetylation target. The substrate contains a peptide having 14 amino acid residues as follows: Biotin-GASSHSK(Ac)VLK(MR121) (SEQ ID NO: 3) wherein K(Ac) is an acetylated lysine residue. The peptide is labeled with the fluorophore MR121 (excitation 635 nm/emission 680 nm) at the C-terminus and biotin at the N-terminus.
The peptide substrate is exposed to a sirtuin protein in the presence of NAD^+ to allow deacetylation of the substrate and render it sensitive to cleavage by trypsin. Trypsin is then added and the reaction is carried to completion (i.e., the deacetylated substrate is cleaved) releasing the MR121 fragment. Streptavidin is then added to the reaction where it can bind both the uncleaved substrate (i.e., any remaining acetylated substrate) and the non-fluorescent portion of the cleaved peptide substrate (i.e., the biotin containing fragment). The fluorescence polarization signal observed for the full length peptide substrate bound to streptavidin is higher than the fluorescence polarization signal observed for the released MR121C-terminal fragment. Therefore, the fluorescence polarization obtained is inversely proportional to the level of deacetylation (e.g., the signal is inversely proportional to the activity of the sirtuin protein). Results are read on a microplate fluorescence polarization reader (Molecular Devices Spectramax MD) with appropriate excitation and emission filters.
The fluorescence polarization assays may be conducted as follows: 0.5 μM peptide substrate and 50 μM βNAD^+ is incubated with 2 nM of SIRT3 for 60 minutes at 37° C. in a reaction buffer (25 mM Tris-acetate pH8, 137 mM Na—Ac, 2.7 mM K—Ac, 1 mM Mg—Ac, 0.1% Pluronic F127, 10 mM CaCl2, 1 mM TCEP, 0.025% BSA). Test compounds are solubilized in DMSO and are added to the reaction at 11 concentrations ranging from 0.7 μM to 100 μM. The SIRT3 protein used in the assays corresponded to amino acid residues 102-399 of human SIRT3 with an N-terminal His-tag. […] Fluorescent polarization is determined at excitation (650 nm) and emissions (680 nm) wavelengths. The level of activity of the sirtuin protein in the presence of the various concentrations of test compound are then determined and may be compared to the level of activity of the sirtuin protein in the absence of the test compound, and/or the level of activity of the sirtuin proteins in the negative control (e.g., level of inhibition) and positive control (e.g., level of activation) described below. […]

Compound | IC50 [1] [µM] | IC50 [2] [µM]
COc1ccccc1C(=O)Nc1cccc(/C=C/C(=O)N2CCCNCC2)c1 [Compound 15] | 101 to 150 | 51 to 100
N#Cc1cccc(C(=O)Nc2ccc(-c3cc(C(N)=O)co3)cc2)c1 [Compound 16] |  | 101 to 150
O=C(Nc1cccc(/C=C/C(=O)N2CCCNCC2)c1)c1ccc(F)c(C(F)(F)F)c1 [Compound 17] |  | 51 to 100
COc1ccc(C(=O)Nc2cccc(/C=C/C(=O)N3CCCNCC3)c2)cc1OC [Compound 18] |  | 51 to 100
